Experimental data taken from ChEMBL document CHEMBL3046890, “Synthesis and Herbicidal Activity of Sulfonylureas; SL-950 and Its Related Compounds” (1995).

Tests used:
Type in all cases: functional
Conditions in all cases: read-out: GI
[1] = tested on: Zea mays; assay: Post emergence phyototoxic activity against Zea mays (maize) plants assessed as inhibition of plant growth at 125 g ai/ha measured 22 to 37 days after compound application under greenhouse conditions
[2] = tested on: Amaranthus viridis; assay: Post-emergence herbicidal activity against Amaranthus viridis assessed as inhibition of weed growth at 125 g ai/ha measured 22 to 37 days after compound application under greenhouse conditions
[3] = tested on: Echinochloa crus-galli; assay: Post emergence herbicidal activity against Echinochloa crus-galli (barnyard grass) assessed as inhibition of weed growth at 125 g ai/ha measured 22 to 37 days after compound application under greenhouse conditions
[4] = tested on: Triticum aestivum; assay: Post emergence phyototoxic activity against Triticum aestivum (wheat) plants assessed as inhibition of plant growth at 125 g ai/ha measured 22 to 37 days after compound application under greenhouse conditions
[5] = tested on: Sida spinosa; assay: Post-emergence herbicidal activity against Sida spinosa assessed as inhibition of weed growth at 125 g ai/ha measured 22 to 37 days after compound application under greenhouse conditions
[6] = tested on: Persicaria longiseta; assay: Post-emergence herbicidal activity against Persicaria longiseta assessed as inhibition of weed growth at 125 g ai/ha measured 22 to 37 days after compound application under greenhouse conditions
[7] = tested on: Xanthium strumarium; assay: Post emergence herbicidal activity against Xanthium strumarium (cocklebur) assessed as inhibition of weed growth at 125 g ai/ha measured 22 to 37 days after compound application under greenhouse conditions
[8] = tested on: Ipomoea purpurea; assay: Post emergence herbicidal activity against Ipomoea purpurea (common morning-glory) assessed as inhibition of weed growth at 125 g ai/ha measured 22 to 37 days after compound application under greenhouse conditions

## CCOc1cc(OC)nc(NC(=O)NS(=O)(=O)c2ncccc2C(=O)N(C)C)n1
[1]
  inhibition of growth at 125 g/ha: 0%
[2]
  inhibition of growth at 125 g/ha: 100%

## COc1cc(OC)nc(NC(=O)NS(=O)(=O)c2ncccc2C(=O)N(C)OC)n1
[3]
  inhibition of growth at 125 g/ha: 100%
[1]
  inhibition of growth at 125 g/ha: 0%
[2]
  inhibition of growth at 125 g/ha: 100%
[4]
  inhibition of growth at 125 g/ha: 100%

## C=CCNC(=O)c1cccnc1S(=O)(=O)NC(=O)Nc1nc(OC)cc(OC)n1
[1]
  inhibition of growth at 125 g/ha: 0%

## CCCCNC(=O)c1cccnc1S(=O)(=O)NC(=O)Nc1nc(OC)cc(OC)n1
[1]
  inhibition of growth at 125 g/ha: 0%

## COc1cc(Cl)nc(NC(=O)NS(=O)(=O)c2ncccc2C(=O)N(C)C)n1
[5]
  inhibition of growth at 125 g/ha: 0%
[1]
  inhibition of growth at 125 g/ha: 0%

## CNC(=O)c1cccnc1S(=O)(=O)NC(=O)Nc1nc(OC)cc(OC)n1
[3]
  inhibition of growth at 125 g/ha: 100%
[6]
  inhibition of growth at 125 g/ha: 100%
[7]
  inhibition of growth at 125 g/ha: 100%
[1]
  inhibition of growth at 125 g/ha: 0%
[2]
  inhibition of growth at 125 g/ha: 100%

## CSc1cc(SC)nc(NC(=O)NS(=O)(=O)c2ncccc2C(=O)N(C)C)n1
[3]
  inhibition of growth at 125 g/ha: 0%
[6]
  inhibition of growth at 125 g/ha: 0%
[5]
  inhibition of growth at 125 g/ha: 0%
[7]
  inhibition of growth at 125 g/ha: 0%
[1]
  inhibition of growth at 125 g/ha: 0%
[2]
  inhibition of growth at 125 g/ha: 0%

## COC(=O)CNC(=O)c1cccnc1S(=O)(=O)NC(=O)Nc1nc(OC)cc(OC)n1
[8]
  inhibition of growth at 125 g/ha: 0%
[3]
  inhibition of growth at 125 g/ha: 0%
[5]
  inhibition of growth at 125 g/ha: 0%
[1]
  inhibition of growth at 125 g/ha: 0%
[2]
  inhibition of growth at 125 g/ha: 0%
[4]
  inhibition of growth at 125 g/ha: 0%

## CCC(=O)N(CC)C(=O)c1cccnc1S(=O)(=O)NC(=O)Nc1nc(OC)cc(OC)n1
[1]
  inhibition of growth at 125 g/ha: 0%
[2]
  inhibition of growth at 125 g/ha: 100%

## COc1cc(SC)nc(NC(=O)NS(=O)(=O)c2ncccc2C(=O)N(C)C)n1
[1]
  inhibition of growth at 125 g/ha: 0%
[2]
  inhibition of growth at 125 g/ha: 100%

## COc1cc(OC)nc(NC(=O)NS(=O)(=O)c2ncccc2C(=O)N(C)c2ccc(Cl)cc2)n1
[7]
  inhibition of growth at 125 g/ha: 100%
[1]
  inhibition of growth at 125 g/ha: 0%

## CCNC(=O)c1cccnc1S(=O)(=O)NC(=O)Nc1nc(OC)cc(OC)n1
[1]
  inhibition of growth at 125 g/ha: 0%

## COc1cc(OC(F)F)nc(NC(=O)NS(=O)(=O)c2ncccc2C(=O)N(C)C)n1
[1]
  inhibition of growth at 125 g/ha: 0%

## COc1cc(OC)nc(NC(=O)NS(=O)(=O)c2ncccc2C(=O)N(C)c2ccccc2)n1
[1]
  inhibition of growth at 125 g/ha: 0%

## COc1cc(C)nc(NC(=O)NS(=O)(=O)c2ncccc2C(=O)N(C)C)n1
[1]
  inhibition of growth at 125 g/ha: 0%

## CN(C)C(=O)c1cccnc1S(=O)(=O)NC(=O)Nc1nc(OC(F)F)cc(OC(F)F)n1
[6]
  inhibition of growth at 125 g/ha: 0%
[5]
  inhibition of growth at 125 g/ha: 0%
[7]
  inhibition of growth at 125 g/ha: 0%
[4]
  inhibition of growth at 125 g/ha: 0%

## C=C(C)NC(=O)c1cccnc1S(=O)(=O)NC(=O)Nc1nc(OC)cc(OC)n1
[1]
  inhibition of growth at 125 g/ha: 0%

## COc1nc(NC(=O)NS(=O)(=O)c2ncccc2C(=O)N(C)C)nc(OC)n1
[8]
  inhibition of growth at 125 g/ha: 0%
[3]
  inhibition of growth at 125 g/ha: 0%
[6]
  inhibition of growth at 125 g/ha: 0%
[5]
  inhibition of growth at 125 g/ha: 0%
[1]
  inhibition of growth at 125 g/ha: 0%
[2]
  inhibition of growth at 125 g/ha: 0%
[4]
  inhibition of growth at 125 g/ha: 0%

## Cc1cc(C)nc(NC(=O)NS(=O)(=O)c2ncccc2C(=O)N(C)C)n1
[8]
  inhibition of growth at 125 g/ha: 0%
[3]
  inhibition of growth at 125 g/ha: 0%
[6]
  inhibition of growth at 125 g/ha: 0%
[5]
  inhibition of growth at 125 g/ha: 0%
[1]
  inhibition of growth at 125 g/ha: 0%
[4]
  inhibition of growth at 125 g/ha: 0%

## COc1cc(OC)nc(NC(=O)NS(=O)(=O)c2ncccc2C(=O)NCC(F)(F)F)n1
[1]
  inhibition of growth at 125 g/ha: 0%

## COc1cc(OC)nc(NC(=O)NS(=O)(=O)c2ncccc2C(=O)N2CCOCC2)n1
[1]
  inhibition of growth at 125 g/ha: 0%
[4]
  inhibition of growth at 125 g/ha: 0%

## COc1cc(OC)nc(NC(=O)NS(=O)(=O)c2ncccc2C(=O)N(C)c2ccc(F)cc2F)n1
[5]
  inhibition of growth at 125 g/ha: 0%
[4]
  inhibition of growth at 125 g/ha: 100%

## CCN(C)C(=O)c1cccnc1S(=O)(=O)NC(=O)Nc1nc(OC)cc(OC)n1
[3]
  inhibition of growth at 125 g/ha: 100%
[7]
  inhibition of growth at 125 g/ha: 100%
[1]
  inhibition of growth at 125 g/ha: 0%

## COc1nc(C)nc(NC(=O)NS(=O)(=O)c2ncccc2C(=O)N(C)C)n1
[8]
  inhibition of growth at 125 g/ha: 0%
[3]
  inhibition of growth at 125 g/ha: 0%
[5]
  inhibition of growth at 125 g/ha: 0%
[1]
  inhibition of growth at 125 g/ha: 0%
[4]
  inhibition of growth at 125 g/ha: 0%

## COc1cc(OC)nc(NC(=O)NS(=O)(=O)c2ncccc2C(=O)NC2CC2)n1
[3]
  inhibition of growth at 125 g/ha: 100%
[1]
  inhibition of growth at 125 g/ha: 0%

## COC(=O)N(C)C(=O)c1cccnc1S(=O)(=O)NC(=O)Nc1nc(OC)cc(OC)n1
[1]
  inhibition of growth at 125 g/ha: 0%

## COc1cc(OC)nc(NC(=O)NS(=O)(=O)c2ncccc2C(=O)N(C)CC(F)(F)F)n1
[1]
  inhibition of growth at 125 g/ha: 0%

## COc1cc(OC)nc(NC(=O)NS(=O)(=O)c2ncccc2C(=O)N2CCCCC2)n1
[1]
  inhibition of growth at 125 g/ha: 0%
